Test results as given in US6162918A, “Xanthene and acridine derivatives” (priority 1996, dated 2000).
Where two headings read alike, the source gives them in different places.

Legend:
[1] = target: HSV-1 thymidine kinase (TK) (Human herpesvirus 1, UniProt P0DTH5); test: Inhibition of HSV-1 thymidine kinase (3H-thymidine phosphorylation, DEAE-cellulose disc assay); assay type: biochemical
Experimental: (§1) In this test procedure, the assay mixture contains […] Tris HCl, pH 8, 5 mmol magnesium chloride, 5 mmol ATP, […] 3H-thymidine (50 Ci/mmol), suitably diluted enzyme preparation and various concentrations of test compounds in a total volume of […]. Assays are incubated at 37° C. for 30 minutes and the reaction is terminated by immersion in a boiling water bath for 2 minutes. […] aliquots from each assay are then dried on to DEAE-cellulose paper discs and the unphosphorylated 3H-thymidine is removed by washing in 4 mmol ammonium formate. The radioactivity remaining bound to the discs is then measured by scintillation spectrophotometry. The degree of inhibition at each concentration of test compound is expressed as a percentage of the control reaction (100%) after subtracting a measured blank value which represents the amount of radioactivity bound to the disc from a reaction containing heat-inactivated enzymes. The IC50 value, namely the concentration of test compound which inhibits enzyme activity by 50%, is then calculated.

[2] = target: HSV-2 thymidine kinase (TK) (Human herpesvirus 2, UniProt P04407); test: Inhibition of HSV-2 thymidine kinase (3H-thymidine phosphorylation, DEAE-cellulose disc assay); assay type: biochemical
Sequence of HSV-2 thymidine kinase (TK) (P04407 whole entry): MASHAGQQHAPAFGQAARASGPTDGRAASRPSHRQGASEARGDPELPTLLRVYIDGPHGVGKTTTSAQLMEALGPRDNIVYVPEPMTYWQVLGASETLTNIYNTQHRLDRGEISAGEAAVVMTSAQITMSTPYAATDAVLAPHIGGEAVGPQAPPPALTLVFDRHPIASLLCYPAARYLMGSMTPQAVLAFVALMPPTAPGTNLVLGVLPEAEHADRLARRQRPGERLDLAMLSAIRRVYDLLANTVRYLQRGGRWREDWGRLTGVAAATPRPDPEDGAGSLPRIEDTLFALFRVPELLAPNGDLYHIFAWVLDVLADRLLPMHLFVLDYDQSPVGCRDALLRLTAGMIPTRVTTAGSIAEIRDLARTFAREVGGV
Experimental: as §1

[3] = 37° C., 30 minutes, pH 8, 3H-thymidine substrate, read-out: Activity against HSV-1 TK IC50 (nmol)
[4] = 37° C., 30 minutes, pH 8, 3H-thymidine substrate, read-out: Activity against HSV-2 TK IC50 (nmol)

Sequence of HSV-1 thymidine kinase (TK) (P0DTH5 whole entry): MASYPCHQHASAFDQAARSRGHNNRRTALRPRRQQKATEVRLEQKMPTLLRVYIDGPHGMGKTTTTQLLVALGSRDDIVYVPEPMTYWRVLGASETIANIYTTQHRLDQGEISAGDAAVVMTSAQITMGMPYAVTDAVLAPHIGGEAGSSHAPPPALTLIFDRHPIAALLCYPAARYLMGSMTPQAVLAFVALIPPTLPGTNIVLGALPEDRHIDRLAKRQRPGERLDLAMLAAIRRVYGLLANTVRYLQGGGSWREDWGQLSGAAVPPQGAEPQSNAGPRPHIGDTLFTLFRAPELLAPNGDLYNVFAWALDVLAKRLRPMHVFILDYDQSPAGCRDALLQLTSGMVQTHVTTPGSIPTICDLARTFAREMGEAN

| IC50 [1, 3] [nM] | IC50 [2, 4] [nM] | SMILES | IC50 [1] [nM] | IC50 [2] [nM] |
| --- | --- | --- | --- | --- |
|  |  | CCc1cn([C@H]2C[C@H](O)[C@@H](CNC(=O)C3c4ccccc4Oc4ccccc43)O2)c(=O)[nH]c1=O [2',5'-dideoxy-5-ethyl-5'-[(9-xanthenyl)carboxamido]uridine, reference compound] | 4.2 | 0.34 |
| 0.3 | 0.095 | CC1(C)CC(=O)C2=C(C1)NC1=C(C(=O)CC(C)(C)C1)C2c1ccc(Cl)c(Oc2ccccc2)c1 [A, 9-(4-chloro-3-phenoxyphenyl)-3,4,6,7,9,10-hexahydro-3,3,6,6-tetramethyl-1,8(2H,5H)-acridinedione] |  |  |
| 0.56 | 0.12 | CC1(C)CC(=O)C2=C(C1)NC1=C(C(=O)CC(C)(C)C1)C2c1ccc(Cl)c(Sc2ccccc2)c1 [B, 9-(4-chloro-3-phenylthiophenyl)-3,4,6,7,9,10-hexahydro-3,3,6,6-tetramethyl-1,8(2H,5H)-acridinedione] |  |  |
| 0.52 | 0.27 | CC1(C)CC(=O)C2=C(C1)NC1=C(C(=O)CC(C)(C)C1)C2c1ccc(Cl)c(-c2ccccc2)c1 [C, 9-[6-chloro-3-(1,1'-biphenylyl)]-3,4,6,7,9,10-hexahydro-3,3,6,6-tetramethyl-1,8(2H,5H)-acridinedione] |  |  |
| 0.8 | 0.19 | CC1(C)CC(=O)C2=C(C1)NC1=C(C(=O)CC(C)(C)C1)C2c1ccc(Cl)c(Oc2ccncc2)c1 [Compound I, 9-[4-chloro-3-(4-pyridyloxy)-phenyl]-3,4,6,7,9,10-hexahydro-3,3,6,6-tetramethyl-1,8(2H,5H)-acridinedione] |  |  |
| 9.4 | 0.64 | CC1(C)CC(=O)C2=C(C1)NC1=C(C(=O)CC(C)(C)C1)C2c1ccc(Cl)c(Cl)c1 [D, 9-(3,4-dichlorophenyl)-3,4,6,7,9,10-hexahydro-3,3,6,6-tetramethyl-1,8(2H,5H)-acridinedione] |  |  |
| 5.9 | 0.44 | CC1(C)CC(=O)C2=C(C1)NC1=C(C(=O)CC(C)(C)C1)C2c1ccc(Cl)c(F)c1 [E, 9-(4-chloro-3-fluorophenyl)-3,4,6,7,9,10-hexahydro-3,3,6,6-tetramethyl-1,8(2H,5H)-acridinedione] |  |  |
| 0.44 | 0.18 | CC1(C)CC(=O)C2=C(C1)NC1=C(C(=O)CC(C)(C)C1)C2c1ccc(Cl)c(-n2cccc2)c1 [F, 9-[4-chloro-3-(1H-pyrrol-1-yl)phenyl]-3,4,6,7,9,10-hexahydro-3,3,6,6-tetramethyl-1,8(2H,5H)-acridinedione] |  |  |
| 5.8 | 1.1 | CC1(C)CC(=O)C2=C(C1)NC1=C(C(=O)CC(C)(C)C1)C2c1cccc(Oc2ccccc2)c1 [G, 3,4,6,7,9,10-hexahydro-3,3,6,6-tetramethyl-9-(3-phenoxyphenyl)-1,8(2H,5H)-acridinedione] |  |  |
| 12 | 1.5 | CC1(C)CC(=O)C2=C(C1)NC1=C(C(=O)CC(C)(C)C1)C2c1ccc(Br)cc1 [H, 9(4-Bromophenyl)-3,4,6,7,9,10-hexahydro-3,3,6,6-tetramethyl-1,8(2H,5H)-acidinedione] |  |  |
| 0.9 | 0.38 | CC1(C)CC(=O)C2=C(C1)NC1=C(C(=O)CC(C)(C)C1)C2c1ccc([N+](=O)[O-])c(OCc2ccccc2)c1 [J, 9-(3-benzyloxy-4-nitrophenyl)-3,4,6,7,9,10-hexahydro-3,3,6,6-tetramethyl-1,8(2H,5H)-acridinedione] |  |  |
| 2.6 | 0.54 | CC1(C)CC(=O)C2=C(C1)NC1=C(C(=O)CC(C)(C)C1)C2c1ccc(Cl)c(Sc2ccncc2)c1 [K] |  |  |
